Experimental data published in patent publication US20250122253A1, “REGULATING MICROTUBULE DYNAMICS AS A THERAPEUTIC TARGET FOR NERVE REPAIR” (City University of Hong Kong, priority 2023, published 2025).

Key:
acetylated tubulin = experiment: Western blot of acetylated tubulin/total tubulin in sciatic nerve segments 0-6 mm distal to the crush site; format: in vivo, mice; conditions: regenerating axons of sciatic nerves 3 days post-injury
Description: Ipsilateral L4/5 DRG neurons were harvested at various time points following sciatic nerve injury as indicated. Sciatic nerves were harvested 3 days after crush injury and segmented into 0-6 mm distal to the crush site. Each protein sample was pooled from 3 mice. DRG neurons and segmented sciatic nerves were mechanically dissociated with protein lysis buffer, and subjected to measurement of protein concentration using protein BCA assay (Pierce). Protein lysate (30 μg) was separated on 4-12% NuPAGE Tris-Glycine precast gel (Invitrogen). Protein was then transferred onto a PVDF membrane (Bio-Rad) and blocked with 5% non-fat milk (Bio-Rad) in TBS-T. The membrane was incubated with anti-FMN2 (1:500; ProteinTech), anti-phosphorylated HDAC5 (1:500, ThermoFisher), anti-HDAC5 (1:500, Novus Biologicals), anti-acetylated tubulin (1:10,000; Sigma-Aldrich), anti-NeuN (1:500; Millipore), anti-SOX10 (1:500; Abcam), anti-IBA-1 (1:1,000; Wako), anti-GFP (1:1,000; Cell Signaling), and anti-GAPDH antibodies (1:2,000; ProteinTech) as loading controls. The membrane was incubated with secondary antibody conjugated with horseradish peroxidase (1:2,000; Thermo-Fisher). Signals were detected using West Femto Maximum Sensitivity Substrate Kit (Thermo Scientific). […] Band intensities were measured using Image Lab software (Bio-Rad). […]

axotomized DRG neurons = experiment: Neurite outgrowth assay in dissociated DRG cultures; format: cell-based, mice; conditions: increasing dose; neurite outgrowth increased almost linearly
Description: Primary cultures of dissociated DRG neurons were prepared from adult male C57BL/6 or Fmn2^−/− mice (8-12 weeks old) and their age-matched WT littermates as described. Briefly, DRGs were dissected out from the mice and mildly digested in collagenase/dispase II (Roche Diagnostics) solution, trypsinized and mechanically dissociated using flame polished Pasteur pipettes with three different diameters. DRG neurons were incubated in full NB medium.
For ex vivo DRG explant culture, non-overlapping quadrant images were taken from each DRG explant, and total neurite length was measured using automated WIS-NeuroMath software (Weizmann Institute of Science). Data were obtained from at least 3 separate experiments with n=8 explants per dose. […] Total neurite length and average longest neurite length were quantified using automated WIS-NeuroMath software (Weizmann Institute of Science). Data was obtained from 3 independent experiments repeated in duplicates. βIII-tubulin-positive DRG neurons with intact neurites adjacent to the neuronal cell bodies were counted as healthy neurons for neurite outgrowth assay.

[1] = cited from earlier work
[2] = system: gastrocnemius and interosseous muscles; experiment: Electromyography (EMG) recording of CMAP amplitude; format: in vivo, mice
Description: Electromyography (EMG) recording was performed on anesthetized mice as described. Briefly, mice were anesthetized with ketamine (100 mg/kg)/xylazine (10 mg/kg), and placed on a heat pad set to 37° C. to avoid hypothermia during the course of EMG recordings. Baseline EMG were recorded before sciatic nerve crush injury using custom-made monopolar Teflon-coated electrodes. Following sciatic nerve crush injury, EMG were recorded on a weekly basis for one month (days 7, 14, 21 and 28). For EMG recordings of proximal gastrocnemius muscle, recording electrode was inserted into the gastrocnemius muscle, and Achilles tendon electrode as a reference. For EMG recordings of distal interosseous muscle, recording electrode and reference electrode was inserted into first and fourth muscle of the same paw, respectively. Sciatic nerve was then stimulated proximally or distally, and both proximal and distal stimulations were used for CMAP of interosseous muscle. Only proximal stimulation was used for CMAP of the gastrocnemius muscle. The mean CMAP amplitude was recorded (Blackrock microsystem, USA) and calculated (Spike 2, UK).
To examine the therapeutic potential of metaxalone, adult mice received daily intraperitoneal injection of metaxalone at 10 mg/kg immediately after injury for 21 consecutive days (i.e., metaxalone treatment) or delaying daily intraperitoneal injection of metaxalone at 10 mg/kg to 24 hours post-injury for 20 consecutive days (i.e., delayed metaxalone treatment), and all metaxalone treatments ended on day 21 post-injury. The mice were then subjected to sensory and motor function recovery tests and weekly EMG recordings for 28 days post-injury.

gait movement = experiment: Sciatic functional index (SFI) walking track analysis; format: in vivo, mice; conditions: 15 days post-injury
Description: Adult male Fmn2^−/− mice (8-12 weeks old) and their age-matched WT littermates, or adult male C57BL/6 mice (for whole-body X-ray, AAV2/9-Fmn2-shRNA and metaxalone experiments) were trained and habituated one week before the sciatic nerve crush injury. After three independent training sessions (30 minutes per session with two days break), baseline values were taken, and sciatic nerve crush injury were performed one day after the baseline recordings. Function recovery was monitored for 30 days. On day 3 after the sciatic nerve crush, we first perform pinprick assay and followed by motor function assays every other day in a sequential manner (toe spreading, grip strength, and sciatic functional index) with 30 mins apart from each test. Animal behavioural tests were done blinded to the surgery and genotypes.
The walking track analysis was performed by training the mice to walk down a narrow corridor covered with white paper strip (10×60 cm) and the hindlimbs of the mice were pained with red water colour. […] The SFI values were calculated from footprints as follows: • […](experimental print length−naïve print length)/naïve print length+109.5×(experimental toe spread−naïve toe spread)/naïve toe spread+13.3×(experimental intermediary toe spread−naïve intermediary toe spread)/naïve intermediary toe spread−8.8. […]

Cc1cc(C)cc(OCC2CNC(=O)O2)c1 (stereo not drawn) [metaxalone]
tubulin acetylation (acetylated tubulin): reduction of tubulin acetylation
concentration at which neurite outgrowth reaches a plateau (axotomized DRG neurons): 20 µM
half-life [1]: 9 h
muscle activities in proximal gastrocnemius vs vehicle controls, delayed treatment ([2]; delayed treatment, week 1 to 3 post-injury): significant improvement
muscle activity in interosseous muscles vs vehicle controls, delayed treatment ([2]; delayed treatment, week 2-3 post-injury): significant increase
muscle activity in most distal interosseous muscles vs vehicle controls ([2]; immediate treatment, first 3 weeks post-injury): reached significance levels
muscle activities in proximal gastrocnemius vs vehicle controls ([2]; immediate treatment, week 1 to 3 post-injury): significant improvement
increase of average SFI compared with SFI values at day 3 post-injury (gait movement; treated immediately): 73.0%
increase of average SFI compared with SFI values at day 3 post-injury, delayed treatment (gait movement; treatment delayed by 24 hours): 71.4%
